The values that follow come from patent US20150352134A1, “COMPOSITION FOR TOPICAL SKIN APPLICATION CONTAINING GINSENOSIDE F2 DERIVED FROM HYDROPONIC GINSENG” (AMOREPACIFIC CORPORATION, priority 2012, published 2015).

Assay [1] has as its system tyrosinase. Description: Tyrosinase inhibitory effect. The assay is classed as biochemical, mushrooms. The following applies: 37° C., absorbance 475 nm.
Description: The tyrosinase as used herein is an enzyme extracted from mushrooms and purchased from Sigma-Aldrich. Firstly, tyrosine as a substrate is dissolved in distilled water to prepare a 0.3 mg/mL solution, which is added dropwise to a test tube at an amount of 1.0 mL each time. To the solution are added 1.0 mL of a potassium phosphate buffer solution (0.1 mol, pH 6.8) and 0.7 mL of distilled water.
0.2 mL of the sample solution is added to the reactant solution and then allowed to have a reaction in a thermostat container at 37° C. for 10 minutes. In this regards, the control is the reactant solution containing 0.2 mL of a solvent alone in place of each sample solution. The positive control uses ascorbic acid. 0.1 mL of a 2500 unit/mL tyrosinase solution is added to the reactant solution, which is then allowed to have a reaction again in a thermostat container at 37° C. for 10 minutes. The test tube filled with the reactant solution is put into an ice water to cause quenching and thus stop the reaction. The absorbance at 475 nm is measured with a photoelectric spectrophotometer. The tyrosinase inhibitory effect is calculated according to the following mathematical formula 3.
The next assay addresses T1, elastase type III (Sus scrofa, UniProt P00772).
T1 construct: purchased Sigma-Aldrich E0127
Description: Elastase inhibitory effect. The assay is classed as biochemical. To be noted: EGCG 250 μM; 25° C., 15 minutes, absorbance 415 nm. The procedure:
The elastase inhibitory function of the ginsenoside F2 is measured in comparison with that of EGCG. The elastase and the substrate used herein are purchased from Sigma-Aldrich, U.S.A. (Cat. No. E0127).
The elastase inhibitory function is measured according to the following method.
In a 96-well plate, ginsenoside F2 (200 μL) and 50 μL of a 20 μg/mL elastase type III solution are mixed with a […] tris-HCL buffer solution (pH 8.0). The positive control is EGCG 250 μM, and the negative control which is a non-treated group is distilled water. Then, 100 μL of 0.4514 mg/mL N-succinyl-ala-ala-ala-p-nitroanilide prepared with the buffer solution is added to the mixture and allowed to react at 25° C. for 15 minutes. After completion of the reaction, the absorbance at 415 nm was measured. The blank test is performed in the same manner as described above to achieve calibration verification.
The elastase inhibitory function is calculated according to the following mathematical formula 1, and the results are presented in Table 2.
Elastase inhibition rate (%)={1−(C−D)/(A−B)}×100 [Mathematical Formula 1]
A: Absorbance at 415 nm with enzyme and no test substance.
B: Absorbance at 415 nm with no test substance and no enzyme.
C: Absorbance at 415 nm with test substance and enzyme.
D: Absorbance at 415 nm with test substance and no enzyme.

The subject of assay [2] is tyrosinase. Briefly: Tyrosinase expression in melanocytes (Western Blot). The class given is cell-based. The following applies: 501me1 cell line, IBMX 100 μM, ginsenoside 10 ppm. The procedure:
501me1 cell line is injected in each well of a 6-well microtiter plate at a rate of 500,000 cells/well. The cell line in each well is treated with 0.1% of DMSO as the negative control group, 100 μM of IBMX as the positive control group, or ginsenoside 10 ppm of F2 as the test group, and cultured at 37° C. for 24 hours, 48 hours, or 72 hours, to obtain proteins. The proteins thus obtained are subjected to Western Blot using MITF and tyrosinase antibodies. Protein extraction and Western Blot are performed using the standard methods known in the art.
(A western blot detects proteins with antibodies after separation by electrophoresis.)

Assay [3] relates to mouse with vitiligo (C57b1/6-Mitf^mi-vit). Description: Grey hair prevention: melanin in newly grown hair of mouse with vitiligo. The assay is classed as in vivo. The following applies: applied twice a day, about 3 weeks, 50 mM IBMX, 2.5% ginsenoside F2. The procedure:
A mouse with vitiligo (C57b1/6-Mitf^mi-vit) is purchased from The Jackson Lab in U.S.A. The testing method on the grey hair inhibitory effect using a mouse with lots of grey hair is carried out as follows. A 12-week old mouse is subjected to depilation on the back side. The area of the depilated region is controlled to be the same to every object. From the next day of the depilation, the grey hair inhibitory substances are applied on the depilated region twice a day. The vehicle for the grey hair inhibitory substances is the mixture of EtOH, 1,3-BG and DW (3:2:5 in volume ratio). The liquid containing the vehicle alone is the negative control, the liquid containing the vehicle in combination with 50 mM IBMX is the positive control, and the liquid containing the vehicle in combination with 2.5% ginsenoside F2 is the test group. When the difference in the grey hair inhibitory effect between the substances is visually recognizable in about 3 weeks, the newly grown hair is collected to measure the quantity of melanin produced in the hair. The quantity of melanin in the hair is measured using esperase (Novozyme) strains that are a protein hydrolase. Esperase is dissolved in a buffer solution (50 mM tris-HCl, 5 mM DTT, pH 9.3) to a concentration of 1 NPU/ml to prepare a reaction buffer. 5 mg of mouse hair is put in 1 ml of the reaction buffer, which is stirred at a speed of 1,000 rpm at 37° C. for 13 hours to cause the reaction and then subjected to a momentary centrifugal isolation to separate the reactant solution from hair. The reactant solution thus obtained is placed in each well of a 96-well plate, and the absorbance at 405 nm is measured to determine the amount of melanin in the reactant solution. When a mouse with vitiligo and lots of grey hair is treated with the negative control substance, the positive control substance, or the test substance, the efficacies are visually observed, and the melanin in hair is quantitatively analyzed.

The subject of the next assay is collagenase (MMP-1). Briefly: Collagenase (MMP-1) expression in human fibroblasts (ELISA). To be noted: 10 μg/mL for 24 hours; not treated control = 100. The assay is classed as cell-based. The procedure: The ginsenoside F2 of the present invention is measured in regards to the inhibitory effect on the generation of collagenase in comparison with retinoic acid. […] The human fibroblasts are treated with ginsenoside F2 or retinoic acid at a concentration of 10 μg/mL for 24 hours. Then, the cell culture medium is collected. The production yield of collagenase in the collected cell culture medium is measured using a collagenase measurement instrument commercially available (Catalog #. RPN 2610, USA Amersham Pharma Inc.). Firstly, the collected cell culture medium is put in each well of a 96-well plate uniformly coated with the primary collagenase antibodies and then subjected to antigen-antibody reactions in a thermostat container for 3 hours. After 3 hours, the secondary collagenase antibodies coupled to the chromophore groups are put in each well of the 96-well plate and then allowed to react for more 15 minutes. […] The intensity of yellowness in the reaction mixture is varied depending on the progress of the reaction. The absorbance of the yellow-colored 96-well plate is measured at 405 nm with a spectrophotometer, and the expression level of collagenase is calculated according to the following mathematical formula 2. In this regard, the absorbance of the cell culture medium collected from the group not treated with the composition of the present invention is considered as the absorbance of the control. [formula]

The test system of another assay is Melanin-a cells. Briefly: Melanogenesis promotion in Melanin-a cells. The class given is cell-based. To be noted: 3 days, DMSO (0.1%) = 100. The procedure: Melanin-a cells are injected in a 24-well microtiter plate at a rate of 50,000 cells per well with an RPMI medium containing 5% fetal bovine serum, 100 IU penicillin G, and 0.2 μM TPA. Next day, the cells are treated with ginsenoside F2 as a test substance independently at the final concentration of 10 ppm or 50 ppm. The negative control is treated with 0.1% DMSO, and the positive control is treated with 100 μM IBMX. Then, the cells are cultured at 37° C. for 3 days. The wells of the plate are washed with PBS, and 100 μl of 1N NaOH is added to each well to dissolve melanin in the cells. The absorbance of the dissolved melanin is measured at 405 nm with a microplate reader. The effect of the ginsenoside F2 to promote melanogenesis is evaluated in comparison with that of the control groups.

T1 sequence (P00772 27-266): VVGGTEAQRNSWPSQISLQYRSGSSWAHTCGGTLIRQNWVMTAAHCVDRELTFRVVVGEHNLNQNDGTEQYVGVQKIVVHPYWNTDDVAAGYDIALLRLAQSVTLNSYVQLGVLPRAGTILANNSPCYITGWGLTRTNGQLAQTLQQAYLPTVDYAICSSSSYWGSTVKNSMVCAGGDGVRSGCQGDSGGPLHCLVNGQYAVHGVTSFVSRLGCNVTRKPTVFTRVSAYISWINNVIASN

With `CC(C)=CCC[C@](C)(O[C@@H]1O[C@H](CO)[C@@H](O)[C@H](O)[C@H]1O)[C@H]1CC[C@]2(C)[C@@H]1[C@H](O)C[C@@H]1[C@@]3(C)CC[C@H](O[C@@H]4O[C@H](CO)[C@@H](O)[C@H](O)[C@H]4O)C(C)(C)[C@@H]3CC[C@]12C` [Ginsenoside F2, ginsenoside F2], in the assay with tyrosinase [1], the “Tyrosinase inhibition rate (%)” value is listed as 69%. Further, the “Inhibition rate (%) (elastase)” value at elastase type III was 78%. Besides, the “Tyrosinase (Western Blot, in comparison with 100 of the negative control group)” value in the assay with tyrosinase [2] (24 hrs) worked out at 150; with tyrosinase [2] (48 hrs), 182; with tyrosinase [2] (72 hrs), 211. For the same compound, in assay [3], the “Amount of melanin (%) with respect to control” value came out at 110.8%. Further, the “Collagenase expression level(%)” value with collagenase (MMP-1) worked out at 73%. The “Yield of Melanin (%)” value is 113% in the assay on Melanin-a cells (10 ppm) and 129% with Melanin-a cells (50 ppm).

For the compound `CC(C)=CCC[C@](C)(O[C@@H]1O[C@H](CO[C@@H]2O[C@H](CO)[C@@H](O)[C@H](O)[C@H]2O)[C@@H](O)[C@H](O)[C@H]1O)[C@H]1CC[C@]2(C)[C@@H]1[C@H](O)C[C@@H]1[C@@]3(C)CC[C@H](O[C@@H]4O[C@H](CO)[C@@H](O)[C@H](O)[C@H]4O[C@@H]4O[C@H](CO)[C@@H](O)[C@H](O)[C@H]4O)C(C)(C)[C@@H]3CC[C@]12C` [Ginsenoside Rb1], the “Tyrosinase inhibition rate (%)” value in the assay on tyrosinase [1] came out at 60%. Further, at elastase type III, the “Inhibition rate (%) (elastase)” value is 71%. Besides, the “Tyrosinase (Western Blot, in comparison with 100 of the negative control group)” value is 149 in the assay on tyrosinase [2] (24 hrs), 165 in the assay with tyrosinase [2] (48 hrs) and 189 in the assay on tyrosinase [2] (72 hrs). In addition, in assay [3], the “Amount of melanin (%) with respect to control” value is on record as 107.1%. In addition, in the assay on collagenase (MMP-1), the “Collagenase expression level(%)” value turned out to be 74%. Further, the “Yield of Melanin (%)” value is recorded as 112% in the assay on Melanin-a cells (10 ppm) and 120% in the assay with Melanin-a cells (50 ppm).
